The values below come from patent US20230381185A1, “NOVEL FORMULATIONS FOR ORAL ADMINISTRATION OF THERAPEUTIC AGENTS TO THE GASTROINTESTINAL TRACT” (3-D Matrix, Ltd., priority 2022, published 2023).

One series deals with DSS-induced colitis mice. Briefly: Efficacy in DSS-induced colitis (DAI, colon weight/length, MPO, histology, immune cells). The format is in vivo. The text has this: An additional benefit of this nanocomposite system is that it can be dried and then reconstituted in vivo or under in vivo-like conditions without substantial alteration of its properties. The dried nanocomposite offers the advantage of a long-duration storage, but, perhaps more importantly, the dried nanocomposite powder can be encapsulated in various types of capsules known in the art for a controlled and localized delivery in precise part of the GIT with systems differentiated in the basis of GIT transit times, pH changes, bacterial enzymes, mucoadhesion, nanotechnologies and disease-associated triggers. One such capsule, designed for release of hydrated RADA16 hydrogel doped with a macromolecular dye, fluorescein isothiocyanate—dextran 4 kDa (FD4), mostly in the large intestine, has been described by Eleftheriadis et al. (Pharm. Development Tech. 25(4): 1-23 (2020)). That reference discloses a pH sensitive hydroxypropyl methylcellulose-phthalate (HPMCP)-based 3D-printed capsule. Other encapsulation materials suited to the present invention include poly(meth) acrylate polymers and members of the Eudragit family (Chu, J. N. and Traverso, G., Foundations of gastrointestinal-based drug delivery and future developments, Nature Reviews: Gastroenterology & Hepatology (2021) doi: 10.1038/s41575-021-00539-w). The present invention is based, at least, on the following findings/parameters: • 1. A nanocomposite based on the physical mixture of a preformed nanosystem (namely nanoemulsion, NE) loaded with a drug intended for the treatment of IBD, and a preformed self-assembling-peptide ([…])-based hydrogel (PURASTAT) was created at different concentrations of SAP. • 2. The creation of nanocomposites characterized by two different concentrations, led to the development of systems with different structural properties, leading to differences in the drug-release behaviours. • 3. […] The use of nanocomposite to test the therapeutic efficacy of the drug on an IBD-mouse model brought results based on different technique, detailed herein. • 5. Certain disease factors were improved by administration of PS hydrogel/NE mixture alone, even in the absence of any active ingredients. Disease activity index (DAI) score, used to evaluate the DSS-induced colitis. […] For each parameter a score from 0 to 4 was attributed and afterwards divided by three, resulting in the total DAI score ranging from 0 (unaffected) to 4 (severe colitis) (Gonçalves, F. da C., Schneider, N., H. M.-A. S. & 2013, U. Characterization of Acute Murine Dextran Sodium Sulfate (DSS) Colitis: Severity of Inflammation is Dependent on the DSS Molecular Weight and Concentration. Acta Sci. Vet. 41, 1-9 (2013)). Colon length and weight, which is often reduced in cases of inflammation (Biton, I. E. et al. Assessing Mucosal Inflammation in a DSS-Induced Colitis Mouse Model by MR Colonography. Tomogr. (Ann Arbor, Mich.) 4, 4-13 (2018)). The activity of the enzyme myeloperoxidase (MPO), which is a direct indicator of neutrophils infiltration into the colonic mucosa, and thus an important marker of inflammation (Hansberry, D. R., Shah, K., Agarwal, P. & Agarwal, N. Fecal Myeloperoxidase as a Biomarker for Inflammatory Bowel Disease. Cureus 9, (2017)). Histomorphologic evaluation by HPS stain (hematoxylin phloxine saffron stain), similar to H&E. HPS can differentiate between the most common connective tissue (collagen) and muscle and cytoplasm by staining the former yellow and the latter two pink, unlike an H&E stain, which stains all three pink. Immunohistochemistry for the detection of CD45 positive cells.
Efficacy of drug-loaded nanocomposites compared to a variety of controls was tested using mice of the same strain used in Example 5. Based on the results from the Stage 1 in vivo studies already described, all mice (except for the G1 healthy control group) were given 3% v/v DSS in drinking water for 4 days. After 4 days all mice were given normal drinking water (i.e., no DSS). […]

For series [1] the following is noted: cited from earlier work.
For series [2], the system named is liver punch hole injuries in pigs. The settings on record: cited from earlier work; for inflammatory cell infiltration due to the SAP: short-term study.
Series [3] concerns oozing wounds in the walls of the stomach and/or duodenum of pigs. The conditions noted are these: endoscopic administration, no control group; cited from earlier work.

Entries after “also recorded” stand apart in the source; their conditions may differ. Read-outs that look alike come from different tables or passages of the source.

`C[C@@H]1CCN(C(=O)CC#N)C[C@@H]1N(C)c1ncnc2[nH]ccc12` [TFC, Tofacitinib]: the “Myeloperoxidase (MPO) activity in colonic tissue” value in the series on DSS-induced colitis mice (indicator of neutrophil infiltration) is reported as “slight improvement”. In the series on DSS-induced colitis mice (mouse, in vivo), the “Th2 or Treg populations” value was “did not affect”; the “infiltration of lymphocytes / CD45+ cells” value is “reduced infiltration of lymphocytes”; the “proportion of Th1 and Th17 proinflammatory populations” value is reported as “significantly reduced”; the “total amount of T cells (CD3+)” value was “strongly reduced”. In addition, in the series with DSS-induced colitis mice (sacrifice at day 10, relative to G2 untreated IBD mice), the “colon weight/colon length ratio (g/cm)” value is reported as “statistically significant improvement; also recorded: significantly prevented”. Also, in the series with DSS-induced colitis mice (with respect to G2), the “epithelium and muscularis structure / architecture (histology)” value was “considerable amelioration”.
On to Ac-RADARADARADARADA-CONH2 [RADA16], for which, in series [1] (2.5% in water), the “storage modulus G′” value was “about 350 Pa”. For the same molecule, in series [2], the “inflammatory cell infiltration due to the SAP” value was “absence”.
Consider IEIKIEIKIEIKI [IEIK13], for which, in series [1] (1% in water), the “storage modulus G′” value was about 700 Pa. In addition, the hemostasis result was “statistically significant improvement” in series [2] (compared to RADA16); “hemostasis was achieved in both heparinized and non-heparinized animals” in series [3]. In series [2], the “inflammatory cell infiltration due to the SAP” value is “absence”.
In the case of KLDLKLDLKLDL [KLD12], the “storage modulus G′” value in series [1] (1.5% in water) is “about 350 Pa”.
